Reference: ChEMBL document CHEMBL4819019, “Design, synthesis, antibacterial activity and toxicity of novel quaternary ammonium compounds based on pyridoxine and fatty acids” (Eur J Med Chem, 2021)

What was measured:
Micrococcus luteus = assay: Antibacterial activity against Micrococcus luteus clinical isolate measured after 24 hrs by broth microdilution method; type: functional
[1] = Lipophilicity, logP of the compound; type: physicochemical; details: octanol/water
Bacillus subtilis = assay: Antibacterial activity against Bacillus subtilis 168 measured after 24 hrs by broth microdilution method; type: functional
Pseudomonas aeruginosa = assay: Antibacterial activity against Pseudomonas aeruginosa ATCC 27853 measured after 24 hrs by broth microdilution method; type: functional
Staphylococcus aureus = assay: Antibacterial activity against Staphylococcus aureus ATCC 29213 measured after 24 hrs by broth microdilution method; type: functional
Escherichia coli = assay: Antibacterial activity against Escherichia coli MG 1655 measured after 24 hrs by broth microdilution method; type: functional
[2] = Genotoxicity in Salmonella typhimurium TA1537 assessed as number of revertant by Ames spot test relative to solvent control; type: toxicity; details: salmonella enterica subsp. enterica serovar typhimurium
[3] = Genotoxicity in Salmonella typhimurium TA98 assessed as number of revertant by Ames spot test relative to solvent control; type: toxicity; details: salmonella enterica subsp. enterica serovar typhimurium
[4] = Genotoxicity in Salmonella typhimurium TA1535 assessed as number of revertant by Ames spot test relative to solvent control; type: toxicity; details: salmonella enterica subsp. enterica serovar typhimurium
[5] = Genotoxicity in Salmonella typhimurium TA100 assessed as number of revertant by Ames spot test relative to solvent control; type: toxicity; details: salmonella enterica subsp. enterica serovar typhimurium

Compound	MIC (Micrococcus luteus) [µg/mL]	logP [1]	MIC (Bacillus subtilis) [µg/mL]	MIC (Pseudomonas aeruginosa) [µg/mL]	MIC (Staphylococcus aureus) [µg/mL]	MIC (Escherichia coli) [µg/mL]	Ratio [2]	Ratio [3]	Ratio [4]	Ratio [5]
CCCCCCCCCCCC(=O)NCCC[N+](C)(C)Cc1cnc(C)c2c1COC(C)(C)O2.[Cl-]	16	0.58	8	64	8	64				
CCCCCCCCCCCCCCCCCC(=O)NCC[N+](C)(C)Cc1cnc(C)c2c1COC(C)(CCC)O2.[Cl-] (centres undefined)	> 64	4.02	> 64	> 64	> 64	> 64				
CCCCCCCCCCCCCC(=O)NCC[N+](C)(C)Cc1nc(C)c2c(c1CO)COC(CCC)O2.[Cl-] (centres undefined)	4	1.56	2	> 64	2	64				
CCCCCCCCCCCC(=O)NCCC[N+](C)(C)Cc1cnc(C)c2c1COC(C)(CCC)O2.[Cl-] (centres undefined)	4	1.41	4	32	1	8				
CCCCCCCCCC(C)C1OCc2c(C[N+](C)(C)CCCNC(=O)CCCCC)cnc(C)c2O1.[Cl-] (centres undefined)	> 64	2.34	> 64	> 64	> 64	> 64				
CCCCCC(=O)NCCC[N+](C)(C)Cc1cnc(C)c2c1COC(CCC)O2.[Cl-] (centres undefined)	> 64	-1.25	> 64	> 64	> 64	> 64				
CCCCCCCCCCCCCCCCCC(=O)NCCC[N+](C)(C)Cc1cnc(C)c2c1COC(C)(CCC)O2.[Cl-] (centres undefined)	> 64	4.08	> 64	> 64	> 64	> 64				
CCCCCCCCCCCCCCCC(=O)NCC[N+](C)(C)Cc1cnc(C)c2c1COC(C)(CCC)O2.[Cl-] (centres undefined)	16	3.13	16	> 64	8	> 64				
CCCCCCCCCCCCCC(=O)OCCC[N+](C)(C)Cc1cnc(C)c2c1COC(CCCCC)O2.[Cl-] (centres undefined)	8	3.92	4	> 64	8	> 64				
CCCCCC(=O)NCCC[N+](C)(C)Cc1cnc(C)c2c1COC(C)(C)O2.[Cl-]	> 64	-2.09	> 64	> 64	> 64	> 64				
CCCCCCCCCCCCCC(=O)NCCC[N+](C)(C)Cc1cnc(C)c2c1COC(CCCCCCCC)O2.[Cl-] (centres undefined)	> 64	4.53	> 64	> 64	> 64	> 64				
Nc1ccc([N+](=O)[O-])cc1N							3.7	4.2		
CCCCCCCCCCCCCC(=O)OCCC[N+](C)(C)Cc1cnc(C)c2c1COC(CCCCCCCC)O2.[Cl-] (centres undefined)	> 64	5.25	> 64	> 64	> 64	> 64				
COS(C)(=O)=O [METHANESULFONIC ACID METHYL ESTER]									30	2.7
CCCCCCCCCCCC(=O)OCC[N+](C)(C)Cc1cnc(C)c2c1COC(C)(C)O2.[Cl-]	4	1.25	4	64	4	16				
CCCCCCCCCCCC(=O)NCC[N+](C)(C)Cc1cnc(C)c2c1COC(C)(C)O2.[Cl-]	4	0.52	8	32	1	32				
CCCCCCCCCCCCCCCC(=O)OCCC[N+](C)(C)Cc1cnc(C)c2c1COC(CCC)O2.[Cl-] (centres undefined)	8	3.92	32	32	32	> 64				
CCCCCCCC[N+](C)(C)Cc1nc(C)c2c(c1CO)COC(C)(C)O2.[Cl-]	64	-0.78	64	> 64	64	64				
CCCCCCCCCCCCCCCCCC[N+](C)(C)Cc1cnc(C)c2c1COC(C)(C)O2.[Cl-]	16	4.35	> 64	> 64	4	> 64				

Continued by falling MIC (Micrococcus luteus), values first:

MIC (Micrococcus luteus) [µg/mL]	logP [1]	MIC (Bacillus subtilis) [µg/mL]	MIC (Pseudomonas aeruginosa) [µg/mL]	MIC (Staphylococcus aureus) [µg/mL]	MIC (Escherichia coli) [µg/mL]	Compound	Ratio [2]	Ratio [3]	Ratio [4]	Ratio [5]
2	2.35	2	> 64	2	64	CCCCCCCCCCCCCC(=O)OCCC[N+](C)(C)Cc1nc(C)c2c(c1CO)COC(CCC)O2.[Cl-] (centres undefined)				
2	3.19	4	> 64	2	2	CCCCCCCCCCCCCCCC(=O)NCCC[N+](C)(C)Cc1cnc(C)c2c1COC(C)(CCC)O2.[Cl-] (centres undefined)				
2	2.36	2	8	4	> 64	CCCCCCCCCCCCCCCC(=O)NCCC[N+](C)(C)Cc1cnc(C)c2c1COC(C)(C)O2.[Cl-]				
2	3.19	8	8	4	> 64	CCCCCCCCCCCCCCCCCC(=O)NCC[N+](C)(C)Cc1cnc(C)c2c1COC(C)(C)O2.[Cl-]				
2	2.3	2	> 64	2	2	CCCCCCCCCCCCCC(=O)NCCC[N+](C)(C)Cc1cnc(C)c2c1COC(C)(CCC)O2.[Cl-] (centres undefined)				
2	3.19	1	> 64	2	> 64	CCCCCCCCCCCCCC(=O)NCCC[N+](C)(C)Cc1cnc(C)c2c1COC(CCCCC)O2.[Cl-] (centres undefined)				
2	2.2	2	16	2	16	CCCCCCCCCCCCCC(=O)OCCC[N+](C)(C)Cc1cnc(C)c2c1COC(C)(C)O2.[Cl-]				
2	1.52	0.5	> 64	1	64	CCCCCCCCCCCCCC(=O)OCCC[N+](C)(C)Cc1nc(C)c2c(c1CO)COC(C)(C)O2.[Cl-]				
2	1.31	1	32	2	8	CCCCCCCCCCCC(=O)OCCC[N+](C)(C)Cc1cnc(C)c2c1COC(C)(C)O2.[Cl-]				
2	2.08	2	32	1	4	CCCCCCCCCCCC(=O)OCC[N+](C)(C)Cc1cnc(C)c2c1COC(CCC)O2.[Cl-] (centres undefined)				
2	3.09	8	32	16	> 64	CCCCCCCCCCCCCCCC(=O)OCCC[N+](C)(C)Cc1cnc(C)c2c1COC(C)(C)O2.[Cl-]				
2	2.29	2	> 64	2	64	CCCCCCCCCCCCCC(=O)OCC[N+](C)(C)Cc1nc(C)c2c(c1CO)COC(CCC)O2.[Cl-] (centres undefined)				
1	0.79	2	> 64	2	16	CCCCCCCCCCCCCC(=O)NCCC[N+](C)(C)Cc1nc(C)c2c(c1CO)COC(C)(C)O2.[Cl-]				
1	3.86	4	8	2	> 64	CCCCCCCCCCCCCCCC(=O)OCC[N+](C)(C)Cc1cnc(C)c2c1COC(CCC)O2.[Cl-] (centres undefined)				
1	2.93	4	2	1	32	CCCCCCCCCCCCCCCC(=O)NCC[N+](C)(C)Cc1cnc(C)c2c1COC(C)(C)O2.[Cl-]				
1	1.62	1	> 64	2	64	CCCCCCCCCCCCCC(=O)NCCC[N+](C)(C)Cc1nc(C)c2c(c1CO)COC(CCC)O2.[Cl-] (centres undefined)				
1	3.03	2	4	2	> 64	CCCCCCCCCCCCCC(=O)OCCC[N+](C)(C)Cc1cnc(C)c2c1COC(CCC)O2.[Cl-] (centres undefined)				
0.5	3.03	1	4	0.5	> 64	CCCCCCCCCCCCCCCC(=O)OCC[N+](C)(C)Cc1cnc(C)c2c1COC(C)(C)O2.[Cl-]				
